Source: US20230271983A1, “FUNCTIONALIZED ISONITRILES AND PRODUCTS, PREPARATION AND USES THEREOF” (UNIVERSIDADE DE SANTIAGO DE COMPOSTELA, priority 2020, published 2023)

Columns and labels:
[1] = molecular target: T1, human A3AR (Homo sapiens, UniProt P0DMS8); assay: A3AR radioligand competition binding, [3H]NECA, HeLa cell membranes; conditions: for Ki: 10 nM [3H]NECA, 25° C. 180 min, read-out: A3 Ki; for inhibition at 1 µM: read-out: A3 specific binding inhibition percentage
T1 construct: expressed in transfected cells; host or cells: HeLa
T1 sequence (P0DMS8 1-318): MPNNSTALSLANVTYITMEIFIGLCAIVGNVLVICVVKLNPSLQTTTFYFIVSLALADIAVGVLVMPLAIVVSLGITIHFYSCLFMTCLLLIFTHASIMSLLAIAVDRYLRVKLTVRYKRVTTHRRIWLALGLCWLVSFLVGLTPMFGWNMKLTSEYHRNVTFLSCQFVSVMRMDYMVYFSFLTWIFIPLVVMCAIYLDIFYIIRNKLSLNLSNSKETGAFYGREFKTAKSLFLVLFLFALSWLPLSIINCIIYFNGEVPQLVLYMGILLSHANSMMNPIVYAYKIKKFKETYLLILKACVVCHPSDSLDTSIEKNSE
Text: (§1) was evaluate in vitro using radioligand binding assays following a previously described protocol (J. Med. Chem. 2019, 62, 9315-9330). Human ARs were expressed in transfected cell lines [e.g. chinese hamster ovary (CHO) cells (A1AR), human epithelial carcinoma (HeLa) cells (A2AAR and A3AR) and human embryonic kidney (HEK-293) cells (A2BAR)]. [^3H]DPCPX for A1AR and A2BAR, [^3H]NECA for A3AR, and [^3H]ZM241385 for A2AAR were employed as radioligands. […] Using Prism 5.0 software (GraphPad, San Diego, Calif.) K; values were acquired by fitting the data by non-linear regression. Results are the average of three experiments, each of them performed in duplicate. Radioligand binding competition assays were performed in vitro using human ARs expressed in transfected HeLa [hA2AAR (9 pmol/mg protein) and hA3AR (3 pmol/mg protein)], HEK-293 [hA2BAR (1.5 pmol/mg protein)] and CHO [hA1AR (1.5 pmol/mg protein)] cells. A brief description is given below. A1AR competition binding experiments were carried out in membranes from CHO-A, cells labelled with 1 nM [^3H]DPCPX (KD=0.7 nM). Non-specific binding was determined in the presence of 10 μM R-PIA. The reaction mixture was incubated at 25° C. for 60 min. A2AAR competition binding experiments were carried out in membranes from HeLa-A2A cells labelled with 3 nM [^3H]ZM241385 (KD=2 nM). Non-specific binding was determined in the presence of 50 μM NECA. The reaction mixture was incubated at 25° C. for 30 min. […] Non-specific binding was determined in the presence of 400 μM NECA. The reaction mixture was incubated at 25° C. for 30 min. A3AR competition binding experiments were carried out in membranes from HeLa-A3 cells labelled with 10 nM [^3H]NECA (KD=8.7 nM). Non-specific binding was determined in the presence of 100 μM R-PIA. The reaction mixture was incubated at 25° C. for 180 min. After the incubation time, membranes were washed and filtered, radioactivity was detected in a Microbeta Trilux reader (PerkinElmer).
(§2) The adenosinergic (affinity and selectivity) profile of several compounds of the invention was evaluated according to the above examples.

[2] = molecular target: T2, Dopamine D2 receptor (Homo sapiens, UniProt P14416); assay: Dopamine D2 receptor competition binding, [3H]-Spiperone, CHO-D2 membranes; conditions: 0.15 nM [3H]-Spiperone
T2 construct: expressed in transfected cells; host or cells: CHO-D2 #S20 (membranes prepared in Biofarma laboratory)
Protocol: (§3) was evaluated in vitro using radioligand binding assays following a previously described protocol (J. Med. Chem., 2020, 63, 613-620, Eur. J. Med. Chem., 2019, 180, 673-689). Dopamine D2 receptor competition binding experiments were carried out in a polypropilene 96-well plate. In each well was incubated 10 μg of membranes from CHO-D2 #S20 cell line prepared in Biofarma laboratory (Lot: A002/22-07-2015, protein concentration=4185 μg/ml), 0.15 nM [3H]-Spiperone (80.2 Ci/mmol, 1 mCi/ml, Perkin Elmer NET1187001MC) and compounds studied and standard. Non-specific binding was determined in the presence of Sulpiride 10 μM (Sigma S112). The reaction mixture (Vt: 250 μl/well) was incubated at 25° C. for 120 min, 200 μL was transferred to GF/C 96-well plate (Millipore, Madrid, Spain) pretreated with 0.5% of PEI and treated with binding buffer (Tris-HCl 50 mM, EDTA 1 mM, MgCl2 5 mM, KCl 5 mM, NaCl 120 mM, pH=7.4), after was filtered and washed four times with 250 μl wash buffer (Tris-HCl 50 mM, NaCl 0.9%, pH=7.4), before measuring in a microplate beta scintillation counter (Microbeta Trilux, PerkinElmer). Dopamine D3 receptor competition binding experiments were carried out in a polypropilene 96-well plate. In each well was incubated 2 μg of membranes from D3 cell line (Perkin Elmer, ES-173M400UA, protein concentration=1000 μg/ml), 1 nM [3H]-Spiperone (68 Ci/mmol, 1 mCi/ml, Perkin Elmer NET1187001MC) and compounds studied and standard. Non-specific binding was determined in the presence of Haloperidol 1 μM (Sigma H1512). The reaction mixture (Vt: 250 μl/well) was incubated at 25° C. for 60 min, 200 μL was transferred to GF/C 96-well plate (Millipore, Madrid, Spain) pretreated with 0.5% of PEI and treated with binding buffer (Tris-HCl 50 mM, MgCl2 5 mM, pH=7.4), after was filtered and washed four times with 250 μl wash buffer (Tris-HCl 50 mM, pH=7.4), before measuring in a microplate beta scintillation counter (Microbeta Trilux, PerkinElmer, Madrid, Spain).

[3] = molecular target: T3, Dopamine D3 receptor (Homo sapiens, UniProt P35462); assay: Dopamine D3 receptor competition binding, [3H]-Spiperone; conditions: 1 nM [3H]-Spiperone
T3 construct: purchased Perkin Elmer ES-173M400UA
Protocol: as §3

[4] = molecular target: T4, human A2AAR (Homo sapiens, UniProt P29274); assay: A2AAR radioligand competition binding, [3H]ZM241385, HeLa cell membranes; conditions: for inhibition at 1 µM: read-out: A2A specific binding inhibition percentage; for Ki: 3 nM [3H]ZM241385, 25° C. 30 min, read-out: A2A Ki
T4 construct: expressed in transfected cells; host or cells: HeLa
Text: as §1, §2

[5] = molecular target: T5, human A2BAR (Homo sapiens, UniProt P29275); assay: A2BAR radioligand competition binding, [3H]DPCPX, HEK-293 cell membranes; conditions: for inhibition at 1 µM: read-out: A2B specific binding inhibition percentage; for Ki: 25 nM [3H]DPCPX, 25° C. 30 min, read-out: A2B Ki
T5 construct: host or cells: HEK-293
T5 sequence (P29275 1-332): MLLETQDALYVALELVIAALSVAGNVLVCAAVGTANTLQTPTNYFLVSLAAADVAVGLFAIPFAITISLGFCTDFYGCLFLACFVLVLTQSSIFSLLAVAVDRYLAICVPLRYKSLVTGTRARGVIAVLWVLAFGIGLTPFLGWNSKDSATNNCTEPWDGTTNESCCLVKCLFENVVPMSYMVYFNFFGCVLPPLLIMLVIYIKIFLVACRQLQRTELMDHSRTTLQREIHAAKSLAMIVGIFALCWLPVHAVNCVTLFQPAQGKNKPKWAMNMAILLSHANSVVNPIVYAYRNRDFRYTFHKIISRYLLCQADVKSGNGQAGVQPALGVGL
Text: as §1, §2

[6] = molecular target: T6, human A1AR (Homo sapiens, UniProt P30542); assay: A1AR radioligand competition binding, [3H]DPCPX, CHO cell membranes; conditions: for inhibition at 1 µM: read-out: A1 specific binding inhibition percentage; for Ki: 1 nM [3H]DPCPX, 25° C. 60 min, read-out: A1 Ki
T6 construct: expressed in transfected cells; host or cells: CHO
T6 sequence (P30542 1-326): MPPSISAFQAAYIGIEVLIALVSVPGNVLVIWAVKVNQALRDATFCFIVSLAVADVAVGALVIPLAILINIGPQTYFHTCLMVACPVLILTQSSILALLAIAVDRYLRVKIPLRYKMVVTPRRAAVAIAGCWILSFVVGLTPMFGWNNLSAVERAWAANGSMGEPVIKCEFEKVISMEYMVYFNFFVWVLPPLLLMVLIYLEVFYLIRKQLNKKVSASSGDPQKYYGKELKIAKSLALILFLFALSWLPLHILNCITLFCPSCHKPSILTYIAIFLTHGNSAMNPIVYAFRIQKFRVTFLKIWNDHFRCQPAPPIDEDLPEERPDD
Text: as §1, §2

[7] = molecular target: T7, D4 (Homo sapiens, UniProt P21917); assay: Dopamine D4 radioligand binding
T7 sequence (P21917 1-419): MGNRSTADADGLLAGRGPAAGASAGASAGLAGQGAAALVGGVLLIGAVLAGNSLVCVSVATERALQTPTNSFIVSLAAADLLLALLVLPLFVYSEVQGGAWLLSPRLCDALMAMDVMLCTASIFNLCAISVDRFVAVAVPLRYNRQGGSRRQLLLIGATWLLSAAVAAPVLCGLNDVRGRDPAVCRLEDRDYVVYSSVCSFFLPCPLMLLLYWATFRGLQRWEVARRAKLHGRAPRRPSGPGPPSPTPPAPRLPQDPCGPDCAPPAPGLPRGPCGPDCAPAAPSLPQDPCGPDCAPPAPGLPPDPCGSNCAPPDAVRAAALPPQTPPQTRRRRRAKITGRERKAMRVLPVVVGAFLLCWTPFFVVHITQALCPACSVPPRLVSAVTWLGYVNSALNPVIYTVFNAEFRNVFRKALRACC

T4 sequence (P29274 whole entry): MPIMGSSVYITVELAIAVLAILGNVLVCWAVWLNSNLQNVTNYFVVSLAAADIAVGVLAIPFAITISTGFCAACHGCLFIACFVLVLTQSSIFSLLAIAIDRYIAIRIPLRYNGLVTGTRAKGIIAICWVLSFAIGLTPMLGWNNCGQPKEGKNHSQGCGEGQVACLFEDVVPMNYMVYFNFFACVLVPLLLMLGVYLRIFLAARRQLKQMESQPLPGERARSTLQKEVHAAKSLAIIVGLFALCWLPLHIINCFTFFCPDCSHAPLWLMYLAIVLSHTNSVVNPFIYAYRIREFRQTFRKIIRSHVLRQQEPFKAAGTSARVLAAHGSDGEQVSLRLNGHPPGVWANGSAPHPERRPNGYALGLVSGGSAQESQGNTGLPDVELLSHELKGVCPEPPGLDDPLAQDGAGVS
T3 sequence (P35462 whole entry): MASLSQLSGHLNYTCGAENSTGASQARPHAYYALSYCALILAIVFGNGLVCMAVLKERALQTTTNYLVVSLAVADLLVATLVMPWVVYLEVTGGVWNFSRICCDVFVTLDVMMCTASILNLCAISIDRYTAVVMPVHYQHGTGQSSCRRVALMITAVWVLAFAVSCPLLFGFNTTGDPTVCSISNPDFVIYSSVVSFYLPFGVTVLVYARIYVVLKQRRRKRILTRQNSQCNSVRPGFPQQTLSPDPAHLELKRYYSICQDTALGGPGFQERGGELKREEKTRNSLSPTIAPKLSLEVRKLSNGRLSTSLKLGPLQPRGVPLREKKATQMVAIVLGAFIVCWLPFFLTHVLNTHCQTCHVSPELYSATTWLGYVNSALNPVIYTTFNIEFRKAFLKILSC
T2 sequence (P14416 whole entry, species assumed): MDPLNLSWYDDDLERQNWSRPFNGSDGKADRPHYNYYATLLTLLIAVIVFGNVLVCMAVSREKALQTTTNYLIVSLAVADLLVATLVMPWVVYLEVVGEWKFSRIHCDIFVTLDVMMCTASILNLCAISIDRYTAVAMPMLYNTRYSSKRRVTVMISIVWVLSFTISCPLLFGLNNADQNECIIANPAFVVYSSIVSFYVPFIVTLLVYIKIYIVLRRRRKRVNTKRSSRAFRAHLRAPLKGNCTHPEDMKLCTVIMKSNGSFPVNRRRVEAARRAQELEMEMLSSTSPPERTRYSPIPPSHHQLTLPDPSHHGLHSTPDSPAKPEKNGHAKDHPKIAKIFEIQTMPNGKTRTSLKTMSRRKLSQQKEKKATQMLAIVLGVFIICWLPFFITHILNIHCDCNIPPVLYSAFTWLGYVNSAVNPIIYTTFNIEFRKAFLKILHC

Ki [1] [nM] | Ki [2] [nM] | Ki [3] [nM] | inhibition at 1 µM [4] [%] | Ki [5] [nM] | SMILES | inhibition at 1 µM [5] [%] | inhibition at 1 µM [6] [%] | inhibition at 1 µM [1] [%] | further results
6.13 |  |  |  |  | COc1ccc(-c2cc(NC(=O)CCC(=O)N(C)CC(=O)NCCCOCCOCCOCCCNC(=O)CN(C)C(=O)COc3ccc(-c4ccc5n4[B-](F)(F)[N+]4=C(c6cccs6)C=CC4=C5)cc3)nc(-c3ccc(OC)cc3)n2)cc1 |  |  |  | 
 | 1.06 | 148 |  |  | CN(CC(=O)NCCCOCCOCCOCCCNC(=O)CN(C)C(=O)COc1ccc(-c2ccc3n2[B-](F)(F)[N+]2=C(c4cccs4)C=CC2=C3)cc1)C(=O)CCC(=O)Nc1ccc(CCN2CN(c3ccccc3)C3(CCN(CCCC(=O)c4ccc(F)cc4)CC3)C2=O)cc1 |  |  |  | 
10 | 30 | 2600 | 5 |  | COc1ccc(-c2cc(NC(=O)COCC(=O)N(C)CC(=O)NCCOCCOCCOCCOCCNC(=O)CN(C)C(=O)CCCOc3ccc(CN4CCN(c5ccccc5OC)CC4)cc3OC)nc(-c3ccc(OC)cc3)n2)cc1 | 4 | 8 |  | 
195 |  |  | 13 | 78.6 | [C-]#[N+]CCCOCCOCCOCCCNC(=O)CN1CCN(C(=O)CNC(=O)COc2ccc(-c3cc4c([nH]3)c(=O)n(CCC)c(=O)n4C)cc2)CC1 |  |  |  | Ki [6]: 101 nM
 | 1.1 | 1 |  |  | [C-]#[N+]CCCOCCOCCOCCCNC(=O)CN(C)C(=O)/C=C/c1ccc2sc(C(=O)NCCCCN3CCN(c4cccc(Cl)c4Cl)CC3)cc2c1 |  |  |  | Ki [7]: 500 nM
42.7 |  |  | 23 | 39.6 | CCCn1c(=O)c2[nH]c(-c3ccc(OCC(=O)NCC(=O)N4CCN(CC(=O)NCCCOCCOCCOCCCNC(=O)CN(C)C(=O)COc5ccc(C6=[N+]7C(=Cc8ccc(-c9cccs9)n8[B-]7(F)F)C=C6)cc5)CC4)cc3)cc2n(C)c1=O |  |  |  | Ki [6]: 471 nM
 |  |  |  |  | CN(CC(=O)NCCOCCOCCNC(=O)CN(C)C(=O)CC(C)(C)CC(=O)Nc1c(F)cc(C(=O)Nc2nccs2)cc1F)C(=O)CCCCCN1/C(=C/C=C/C=C/C2=[N+](C)c3ccccc3C2(C)C)C(C)(C)c2ccccc21 | 59 | 33 | 54 | Ki [4]: 420 nM
 |  |  |  |  | CN(CC(=O)NCCCOCCOCCOCCCNC(=O)CN(C)C(=O)CC(C)(C)CC(=O)Nc1c(F)cc(C(=O)Nc2nccs2)cc1F)C(=O)CCCCCN1/C(=C/C=C/C=C/C2=[N+](C)c3ccccc3C2(C)C)C(C)(C)c2ccccc21 | 18 | 31 | 37 | Ki [4]: 8.35 nM

SMILES | Ki [1] [nM] | Ki [2] [nM] | Ki [3] [nM] | inhibition at 1 µM [4] [%] | Ki [5] [nM] | inhibition at 1 µM [5] [%] | inhibition at 1 µM [6] [%] | inhibition at 1 µM [1] [%] | further results
CCCn1c(=O)c2[nH]c(-c3ccc(OCC(=O)NCC(=O)N4CCN(C(C)(C)C(=O)NCCCOCCOCCOCCCNC(=O)CN(C)C(=O)COc5ccc(C6=[N+]7C(=Cc8ccc(-c9cccs9)n8[B-]7(F)F)C=C6)cc5)CC4)cc3)cc2n(C)c1=O |  |  |  | 1 | 250 |  | 46 | 37 | 
